The values that follow come from PubChem BioAssay (NCI).

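1) Cells in 96-well plates. 2) Compound, 48 h, 5 concentrations. 3) Linear interpolation between surrounding doses. 4) Unreached endpoint = highest concentration. GI50 = concentration required for 50% inhibition of growth. At the TGI there is no net growth.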

Some test systems named below: DU-145 prostate; BT-549 breast; HCC-2998 colon; SK-MEL-28 melanoma; IGROV1 ovarian; UACC-62 melanoma; A498 renal; SK-MEL-2 melanoma; UACC-257 melanoma; MDA-MB-435.
Common to all, as to assay: DTP human tumour cell line panel, 48 h

With `Clc1ccc(-c2cn3c(nc4ccccc43)c(/C=C/c3ccco3)n2)cc1`, the TGI in the experiment with DU-145 prostate, in the experiment on BT-549 breast, with HCC-2998 colon, in the experiment with SK-MEL-28 melanoma, in the experiment on IGROV1 ovarian and in the experiment with UACC-62 melanoma was more than 100 µM in each case. Besides, the TGI in the experiment on A498 renal is 96.3 µM; with SK-MEL-2 melanoma it was 41.6 µM; with UACC-257 melanoma it was more than 100 µM; in the experiment with MDA-MB-435 it was more than 100 µM.

`O=C(CCC=C(S(=O)(=O)c1ccccc1)S(=O)(=O)c1ccccc1)c1ccccc1`: the TGI in the experiment on DU-145 prostate came out at 25.4 µM; in the experiment with BT-549 breast, 18.2 µM; in the experiment with HCC-2998 colon, 21.7 µM; in the experiment with SK-MEL-28 melanoma, 34.6 µM; in the experiment on IGROV1 ovarian, 31 µM; with UACC-62 melanoma it was 19.7 µM. Besides, the TGI in the experiment with A498 renal came to 31.7 µM; with SK-MEL-2 melanoma it was 9.7 µM; in the experiment on UACC-257 melanoma it was 23.3 µM; in the experiment with MDA-MB-435, 24.3 µM.

`C=CCN(CCNS(=O)(=O)c1ccc(C)cc1)S(=O)(=O)c1ccc(C)cc1`: the TGI is more than 100 µM in the experiment with DU-145 prostate; 61 µM with BT-549 breast; more than 100 µM with HCC-2998 colon; more than 100 µM in the experiment on SK-MEL-28 melanoma; more than 100 µM with IGROV1 ovarian; more than 100 µM with UACC-62 melanoma. Further, the TGI is 26.8 µM in the experiment with A498 renal, 94.3 µM in the experiment on SK-MEL-2 melanoma, more than 100 µM in the experiment on UACC-257 melanoma and more than 100 µM in the experiment on MDA-MB-435.

Regarding `COc1cc(OC)cc(-c2n/c(=C\c3c(O)[nH]c4ccc(OC)cc34)cc3c2=Nc2ccccc2-3)c1`, the GI50 with DU-145 prostate is 3.49 µM; with BT-549 breast, 2.19 µM; with HCC-2998 colon, 1.87 µM; with SK-MEL-28 melanoma, 13.5 µM; with IGROV1 ovarian, 25.2 µM; in the experiment on UACC-62 melanoma, 18.3 µM. The GI50 with A498 renal is 14.8 µM; in the experiment on SK-MEL-2 melanoma, 20.8 µM; in the experiment on UACC-257 melanoma, 23.3 µM; in the experiment on MDA-MB-435 it was 4.12 µM. Also, the TGI in the experiment on DU-145 prostate turned out to be 10.7 µM; in the experiment on BT-549 breast, 4.7 µM; in the experiment with HCC-2998 colon, 3.51 µM; in the experiment with SK-MEL-28 melanoma, 33.4 µM; with IGROV1 ovarian, 68.4 µM; in the experiment with UACC-62 melanoma it was 36 µM. Also, the TGI stood at 34 µM in the experiment on A498 renal, 37.3 µM in the experiment on SK-MEL-2 melanoma, 49.8 µM in the experiment on UACC-257 melanoma and 29.3 µM in the experiment with MDA-MB-435.

Regarding `Cc1sc2c(c1C)/C(=N\O)c1cccn1-2`, the TGI in the experiment with DU-145 prostate, in the experiment on BT-549 breast, in the experiment on HCC-2998 colon, with SK-MEL-28 melanoma, with IGROV1 ovarian and in the experiment with UACC-62 melanoma was more than 100 µM throughout. In addition, the TGI was 75.9 µM with A498 renal, more than 100 µM with SK-MEL-2 melanoma, more than 100 µM in the experiment on UACC-257 melanoma and more than 100 µM with MDA-MB-435.

As for `N=c1c2c(=S)n(-c3ccccc3)c(=S)n(-c3ccccc3)c2nc(SCCN2CCCC2)n1-c1ccccc1`, the TGI was 3.29 µM in the experiment on DU-145 prostate; 5.13 µM in the experiment on BT-549 breast; 2.78 µM with HCC-2998 colon; more than 38.7 µM in the experiment on SK-MEL-28 melanoma; 3.52 µM in the experiment on IGROV1 ovarian; 3.04 µM in the experiment on UACC-62 melanoma. The TGI worked out at 23.5 µM in the experiment on A498 renal, 13.9 µM in the experiment with SK-MEL-2 melanoma, 3.06 µM in the experiment on UACC-257 melanoma and 3.82 µM in the experiment on MDA-MB-435.

Regarding `COC(=O)c1c(C#N)c(N)nc2c1CCC2`, the TGI in the experiment on DU-145 prostate, in the experiment with BT-549 breast, in the experiment on HCC-2998 colon, in the experiment with SK-MEL-28 melanoma, in the experiment on IGROV1 ovarian and in the experiment with UACC-62 melanoma was more than 100 µM in each case. Besides, the TGI in the experiment on A498 renal, in the experiment on SK-MEL-2 melanoma, in the experiment with UACC-257 melanoma and in the experiment with MDA-MB-435 was more than 100 µM each time.

For the compound `Cc1ccc(C(=O)Nc2ccc(CP(=O)(O)O)cc2CP(=O)(O)O)cc1NC(=O)Nc1cc(C(=O)Nc2ccc(CP(=O)(O)O)cc2CP(=O)(O)O)ccc1C`, the TGI with DU-145 prostate, in the experiment with BT-549 breast, in the experiment on HCC-2998 colon, in the experiment with SK-MEL-28 melanoma, in the experiment with IGROV1 ovarian and in the experiment with UACC-62 melanoma was more than 100 µM in each case. Further, the TGI in the experiment with A498 renal, with SK-MEL-2 melanoma, in the experiment with UACC-257 melanoma and with MDA-MB-435 was more than 100 µM throughout.

`CCCCCCCCCCCC[C@@H](O)[C@H]1CCC([C@H](O)CCCCC(=O)CCCCCCCC2=C[C@H](C)OC2=O)O1` (stereo not given in full): the TGI in the experiment with DU-145 prostate is more than 50 µM; in the experiment on BT-549 breast, more than 50 µM; in the experiment with HCC-2998 colon it was more than 50 µM; in the experiment with SK-MEL-28 melanoma, more than 50 µM; in the experiment on IGROV1 ovarian, more than 50 µM; in the experiment on UACC-62 melanoma it was more than 40.9 µM. Also, the TGI in the experiment on A498 renal, in the experiment with SK-MEL-2 melanoma, in the experiment with UACC-257 melanoma and in the experiment on MDA-MB-435 was more than 50 µM throughout.

Take `O=c1[nH]cc(Cl)c(=O)[nH]1`: the TGI in the experiment with DU-145 prostate, in the experiment with BT-549 breast, with HCC-2998 colon, in the experiment with SK-MEL-28 melanoma, in the experiment on IGROV1 ovarian and in the experiment with UACC-62 melanoma was more than 100 µM each time. Also, the TGI in the experiment with A498 renal, with SK-MEL-2 melanoma, in the experiment on UACC-257 melanoma and with MDA-MB-435 was more than 100 µM throughout.
